We go through 3 compounds from patent US10738049B2, “N-{3-[3-cyclopropyl-5-(2-fluoro-4-iodophenylamino)-6,8-dimethyl-2,4,7-trioxo-3,4,6,7-tetrahydro-2H-pyrido[4,3-D]pyrimidin-1-YL]-phenyl}-cyclopropanecarboxamide dimethyl sulfoxide solvate as an MEK1/2 inhibitor” (R-PHARM JOINT STOCK COMPANY (R-PHARM, JSC), priority 2016, dated 2020).

In general, IC50 refers to the point on the concentration scale where inhibition reaches its midpoint. A higher IC50 goes with weaker potency. What is called solubility is the dissolved amount per volume that the medium holds. As usually defined, the T/C is the ratio of treated to control. What is called LD50 is the dose at which mortality reaches 50%.

In one data set the target is T1, MEK1 (Homo sapiens, UniProt Q02750).
T1 construct: purchased Life Technologies
T1 sequence (Q02750 whole entry): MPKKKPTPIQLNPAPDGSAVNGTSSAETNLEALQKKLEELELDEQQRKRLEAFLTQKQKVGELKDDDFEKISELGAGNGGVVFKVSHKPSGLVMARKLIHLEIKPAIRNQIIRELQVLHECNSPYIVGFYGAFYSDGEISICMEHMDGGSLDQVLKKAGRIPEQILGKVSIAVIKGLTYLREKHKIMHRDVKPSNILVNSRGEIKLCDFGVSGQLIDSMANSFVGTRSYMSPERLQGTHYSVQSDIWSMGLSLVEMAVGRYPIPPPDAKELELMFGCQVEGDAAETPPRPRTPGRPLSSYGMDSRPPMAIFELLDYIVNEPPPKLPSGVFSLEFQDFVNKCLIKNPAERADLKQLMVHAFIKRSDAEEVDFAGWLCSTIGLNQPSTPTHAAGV
The data set can be described thus: MEK1 kinase activity, Z'-LYTE screening platform. The data set is classed as biochemical. The following applies: 100 μM ATP, 1% DMSO.

The nature of data set [1]: Body weight and deaths during treatment in the xenograft study.
Method: The animals were treated with the test products for 21 days.
When average tumor size reached 100-200 mM^3 the animals were subdivided into experimental groups and treatment with the test drugs was started. The products were administered intragastrically daily, while the control group received the solvent.
Also, health and behavior of animals were monitored, numbers of lethal outcomes and tumor regressions were recorded: Regression=(Vini−Vfin)/Vi×100%,
Measurement of animal weights was carried out 3 times a week.
Data set [2] is described as follows: Determination of thermodynamic solubility. The data set is classed as physicochemical. The following applies: for solubility at 24 h: 25 °C, thermodynamic from solid. As for the experimental part: Use additional quantities of the substances until the solution becomes turbid. Incubate vials with the solution for 24 h at 25° C. with mixing to achieve equilibrium between saturated solution and precipitate. Upon equilibration filter 200 μL of the solution (in duplicate) through a 96-well filter plate (Millipore) to separate the precipitate. Determine concentrations of the compounds in the filtrate by spectrophotometry using standard calibration curve. Carry out measurement of optical absorption spectrum of the substance and plot calibration curve at the selected wavelength (usually corresponding to the substance absorption maximum λmax). Calculate concentration of the substance in the filtrate (i.e., solubility) by the following equation: Solubility=(ODλmax filtrate−ODλmax blank)/Slope×1.67×Filtrate dilution,
ODλmax filtrate=absorbance of the filtrate:
ODλmax blank=absorbance of the blank solution without the substance;
Slope=slope of the calibration curve;
1.67=dilution factor for the filtrate in acetonitrile;
Filtrate dilution=dilution factor for the filtrate in the buffer.

Data set [3] has as its system A375 human melanoma xenograft. The data set is described as follows: Study of efficiency in human melanoma xenograft model. The data set is classed as in vivo, NMRI nude female mice. The following applies: for T/C / Vavg (average tumor volume): after 21 days of treatment. As for the experimental part:
Study of efficiency in human melanoma xenograft model. The study was carried out in ProQinase GmbH Freiburg, Breisacher Str. 117, D-79106 Freiburg, GERMANY.
A375 human melanoma cells were cultivated in vials with DMEM medium with addition of 10% FBS in a humid atmosphere containing 95% of air and 5% of CO2 at 37° C. Cancer cells were passaged to animals after an adaptation period. For that end the cells were collected using TrypLE Express (Invitrogen), washed and suspended in sterile PBS to the final concentration of 3×10^7 cells/mL. This cell suspension was injected subcutaneously (SC) in mice left flanks (3×10^6 cells or 100 μL per mouse).
Measurement of subcutaneously implanted tumors was carried out 2 times a week starting from the day of cells introduction. Tumor volume (mm^3) was determined by the equation: V=L×W^2/2,
where L corresponds to maximum and W to minimum tumor diameter (mm). The measurements were carried out using a slide caliper.
The study included calculation of tumor growth inhibition values: T/C=Vexp/Vctrl×100%,
Vctrl=average tumor volume in the control group;
Vexp=average tumor volume in the experimental group.
Vini=initial tumor volume at the start of treatment;
Vfin=tumor volume at the end of treatment.
A general note: Xenograft models place foreign cells or tissue in a host animal.

For data set [4] the following is noted: single-dose oral, mice; cited from earlier work.
For data set [5] the following is noted: cited from earlier work.
Setting [6] is: 4% dimethyl sulfoxide and 96% corn oil, oil or lipid, 4% dimethyl sulfoxide, 96% corn oil, read-out: Solubility in a mixture of 4% sulfoxide and 96% corn oil.
Setting [7] is: dimethyl sulfoxide, organic solvent or mixture, read-out: Solubility in dimethyl sulfoxide.
Where [8] appears, read: water, water, read-out: Solubility in water.
The mark [9] stands for this setting: 0.3 mg/kg intragastrically daily.
The mark [10] stands for this setting: 1.0 mg/kg intragastrically daily.
Setting [11] is: 3.0 mg/kg intragastrically daily.
Setting [12] is: 10.0 mg/kg intragastrically daily.

Each structure is given as a SMILES string. Converted amounts (≈) assume the structure as drawn. Where two headings read alike, the source gives them in different places. A value given as a limit tells only on which side of the number the result lay.

Method for MEK1: Assay. The substances were tested for the effect on MEK1 kinase activity using Z′-LYTE screening platform (Life Technologies). Concentration of DMSO in the reaction mixture was 1%. Dilute 100 nL of 100-fold sinks of the substances under study in 100% DMSO in 2.4 μL of kinase buffer (50 mM of HEPES pH 7.5, 0.01% BRIJ-35, 10 mM of mgCl2, 1 mM of EGTA) and add to 5 μL of 2-fold Substrate/Kinase mixture (MEK1/inactivated MARK1 (ERK2)/Ser/Thr03, final content 0.08-0.31 ng of MEK1, 105 ng of inactivated MARK1 (ERK2), and 2 μM of Ser/Thr03) in 384-well plate (black, small-volume manufactured by Corning, κaT. #3676). Pre-incubate the substances with kinases for 10 min at ambient temperature. After that add 2.5 μL of 4-fold ATP solution to start the reaction (final concentration of ATP in the reaction mixture is 100 μM). After 30 sec of incubation on a shaker incubate the reaction for 60 min at ambient temperature. Then add 5 μL of Reagent B (Life Technologies) diluted as 1:1024 and incubate for 60 min more at ambient temperature. Measure fluorescence with excitation at 400 nm and emission at 445 nm and 520 nM.
Calculate % phosphorylation as follows:
Calculate % inhibition as follows:
C100%=average coumarin emission signal, 100% phosphorylation control;
C0%=average coumarin emission signal, 0% phosphorylation control;
F100%=average fluorescein emission signal, 100% phosphorylation control; […]

At MEK1, `Cc1c(=O)n(C)c(Nc2ccc(I)cc2F)c2c(=O)n(C3CC3)c(=O)n(-c3cccc(NC(=O)C4CC4)c3)c12` [Compound of formula 1, N-{3-[3-cyclopropyl-5-(2-fluoro-4-iodophenylamino)-6,8-dimethyl-2,4,7-trioxo-3,4,6,7-tetrahydro-2H-pyrido[4,3-d]pyrimidin-1-yl]-phenyl}-cyclopropanecarboxamide dimethyl sulfoxide solvate] yielded an IC50 of 8.02 nM. Besides, in data set [1] (10 mg/kg, throughout the study), the “Animal body weight loss as compared to the treatment start date” value is reported as “not more than 20%”. In addition, the Animal deaths entry in data set [1] (any of the doses studied (up to 10 mg/kg)) is reported as “did not cause animal deaths”. Moreover, the results for the solubility at 24 h in data set [2] (setting [6]), in data set [2] (setting [7]) and in data set [2] (setting [8]) were 7000 µg/mL, 47000 µg/mL and less than 1000 µg/mL, respectively. Also, the “Solubility in dimethyl sulfoxide relative to Trametinib” value in data set [2] (dimethyl sulfoxide, ratio to Trametinib) is recorded as “more than 2 times”. Further, the “Effect on tumor growth” value in data set [3] (0.3 mg/kg intragastric) is listed as “no effect on tumor growth”. Also, the T/C was determined as 39.5% in data set [3] (setting [9]), 6.7% in data set [3] (setting [10]), 4.0% in data set [3] (setting [11]) and 1.2% in data set [3] (setting [12]). Further, the “Vavg (average tumor volume)” value in data set [3] (setting [9]) came to 834.3 mm^3; in data set [3] (setting [10]) it was 140.5 mm^3; in data set [3] (setting [11]), 84.5 mm^3; in data set [3] (setting [12]) it was 26.1 mm^3. Moreover, the “Animals with tumor regression” value in data set [3] (1 mg/kg) is “three of eight”; in data set [3] (3 mg/kg), 7/8; in data set [3] (10 mg/kg), 8/8.
Turning to `CC(=O)Nc1cccc(-n2c(=O)n(C3CC3)c(=O)c3c(Nc4ccc(I)cc4F)n(C)c(=O)c(C)c32)c1` [Mekinist, Trametinib dimethyl sulfoxide, reference compound], the Animal deaths result in data set [1] (3 mg/kg intragastric for 9 days) is “two”. Besides, the LD50 in data set [4] is reported as more than 2000 mg/kg. The “Animals with tumor regression” value in data set [3] (3 mg/kg intragastric) was 100 % animals. In data set [3] (setting [11]), the T/C worked out at 1.0% and the “Vavg (average tumor volume)” value was 21.1 mm^3.
With `CC(=O)Nc1cccc(-n2c(=O)n(C3CC3)c(=O)c3c(Nc4ccc(I)cc4F)n(C)c(=O)c(C)c32)c1` [Trametinib, reference compound], the values for the solubility at 24 h in data set [2] (setting [6]), in data set [2] (setting [7]) and in data set [2] (setting [8]) were 3000 µg/mL (≈ 4.87 mM), 22000 µg/mL (≈ 35.7 mM) and less than 1000 µg/mL, respectively. Moreover, the “Solubility in aqueous media” value in data set [5] (between pH=2 and pH=8) is given as “practically insoluble”. Besides, the “Solubility in organic solvents” value in data set [5] (organic solvents including highly polar ones) is reported as “very slightly soluble”.
